Test results reported in patent US20210267944A1 (BioXcel Therapeutics, Inc., priority 2018, published 2021).
Structures can show the parent of a compound that is named as a salt. Where two headings read alike, the source gives them in different places.

Details: for Respiration rate, Min / Systolic blood pressure, Max / Systolic blood pressure, Mean ± SD / Systolic blood pressure, Median / Systolic blood pressure, Min / Diastolic blood pressure Max / Diastolic blood pressure Mean ± SD / Diastolic blood pressure Median / Diastolic blood pressure Min / Pulse rate, Max / Pulse rate, Mean ± SD / Pulse rate, Median / Pulse rate, Min / Respiration rate, Max / Respiration rate, Mean ± SD / Respiration rate, Median: SDAT patients, IV infusion; for Subject stopping Criteria met (safety stoppage rule): subject 102
Procedure: Study drug IV infusion was to be stopped at any time if any of the following occurred: • There was more than 20 mm Hg decrease in systolic or diastolic blood pressure. • There was an isolated drop in Systolic BP<100 mm of Hg. • There was an isolated drop Diastolic BP<60 mm of Hg. • There was a decrease in heart rate of 20 beats per minute or a drop below 50 beats per minute. • Attainment of a RASS of −1 at the end of each 30 minutes infusion period.
Return to baseline parameters was defined as BP falling within 15 mm of Hg of baseline reading prior to drug administration or HR falling within 10 beats per minute of baseline reading prior to drug administration.

## Cc1cccc([C@H](C)c2cnc[nH]2)c1C [dexmedetomidine hydrochloride]
01:15 Hr
  Respiration rate, Min: 15 breaths/min
  Systolic blood pressure, Max: 152 mm of Hg
  Systolic blood pressure, Mean ± SD: 135.6 ± 13.94 mm of Hg
  Systolic blood pressure, Median: 141.0 mm of Hg
  Systolic blood pressure, Min: 110 mm of Hg
01:30 Hr
  Diastolic blood pressure Max: 84 mm of Hg
  Diastolic blood pressure Mean ± SD: 70.6 ± 8.14 mm of Hg
  Diastolic blood pressure Median: 70.0 mm of Hg
  Diastolic blood pressure Min: 62 mm of Hg
  Pulse rate, Max: 94 beats/min
  Pulse rate, Mean ± SD: 72.0 ± 14.66 beats/min
  Pulse rate, Median: 71.0 beats/min
  Pulse rate, Min: 52 beats/min
  Respiration rate, Max: 25 breaths/min
  Respiration rate, Mean ± SD: 18.6 ± 3.38 breaths/min
  Respiration rate, Median: 19.0 breaths/min
  Respiration rate, Min: 15 breaths/min
  Systolic blood pressure, Max: 156 mm of Hg
  Systolic blood pressure, Mean ± SD: 130.9 ± 13.44 mm of Hg
  Systolic blood pressure, Median: 129.5 mm of Hg
  Systolic blood pressure, Min: 112 mm of Hg
01:45 Hr
  Diastolic blood pressure Max: 86 mm of Hg
  Diastolic blood pressure Mean ± SD: 69.5 ± 11.82 mm of Hg
  Diastolic blood pressure Median: 66.0 mm of Hg
  Diastolic blood pressure Min: 60 mm of Hg
  Pulse rate, Max: 100 beats/min
  Pulse rate, Mean ± SD: 79.0 ± 14.23 beats/min
  Pulse rate, Median: 79.0 beats/min
  Pulse rate, Min: 61 beats/min
  Respiration rate, Max: 23 breaths/min
  Respiration rate, Mean ± SD: 18.6 ± 2.51 breaths/min
  Respiration rate, Median: 18.0 breaths/min
  Respiration rate, Min: 17 breaths/min
  Systolic blood pressure, Max: 158 mm of Hg
  Systolic blood pressure, Mean ± SD: 131.3 ± 23.43 mm of Hg
  Systolic blood pressure, Median: 131.0 mm of Hg
  Systolic blood pressure, Min: 105 mm of Hg
02:00 Hr
  Diastolic blood pressure Max: 86 mm of Hg
  Diastolic blood pressure Mean ± SD: 78.7 ± 11.02 mm of Hg
  Diastolic blood pressure Median: 84.0 mm of Hg
  Diastolic blood pressure Min: 66 mm of Hg
  Pulse rate, Max: 94 beats/min
  Pulse rate, Mean ± SD: 77.3 ± 20.82 beats/min
  Pulse rate, Median: 84.0 beats/min
  Pulse rate, Min: 54 beats/min
  Respiration rate, Max: 20 breaths/min
  Respiration rate, Mean ± SD: 18.3 ± 1.53 breaths/min
  Respiration rate, Median: 18.0 breaths/min
  Respiration rate, Min: 17 breaths/min
  Systolic blood pressure, Max: 156 mm of Hg
  Systolic blood pressure, Mean ± SD: 143.3 ± 17.01 mm of Hg
  Systolic blood pressure, Median: 150.0 mm of Hg
  Systolic blood pressure, Min: 124 mm of Hg
02:15 Hr
  Diastolic blood pressure Max: 85 mm of Hg
  Diastolic blood pressure Mean ± SD: 69.7 ± 13.28 mm of Hg
  Diastolic blood pressure Median: 62.0 mm of Hg
  Diastolic blood pressure Min: 62 mm of Hg
  Pulse rate, Max: 94 beats/min
  Pulse rate, Mean ± SD: 74.3 ± 21.13 beats/min
  Pulse rate, Median: 77.0 beats/min
  Pulse rate, Min: 52 beats/min
  Respiration rate, Max: 20 breaths/min
  Respiration rate, Mean ± SD: 19.3 ± 1.15 breaths/min
  Respiration rate, Median: 20.0 breaths/min
  Respiration rate, Min: 18 breaths/min
  Systolic blood pressure, Max: 159 mm of Hg
  Systolic blood pressure, Mean ± SD: 142.7 ± 20.98 mm of Hg
  Systolic blood pressure, Median: 150.0 mm of Hg
  Systolic blood pressure, Min: 119 mm of Hg
02:30 Hr
  Diastolic blood pressure Max: 83 mm of Hg
  Diastolic blood pressure Mean ± SD: 76.5 ± 9.19 mm of Hg
  Diastolic blood pressure Median: 76.5 mm of Hg
  Diastolic blood pressure Min: 70 mm of Hg
  Pulse rate, Max: 96 beats/min
  Pulse rate, Mean ± SD: 85.5 ± 14.85 beats/min
  Pulse rate, Median: 85.5 beats/min
  Pulse rate, Min: 75 beats/min
  Respiration rate, Max: 20, 20 breaths/min
  Respiration rate, Mean ± SD: 20.0 ± 0.00 breaths/min
  Respiration rate, Median: 20.0 breaths/min
  Respiration rate, Min: 20, 20 breaths/min
  Systolic blood pressure, Max: 154 mm of Hg
  Systolic blood pressure, Mean ± SD: 153.0 ± 1.41 mm of Hg
  Systolic blood pressure, Median: 153.0 mm of Hg
  Systolic blood pressure, Min: 152 mm of Hg
SDAT, during infusion
  Diastolic blood pressure mean values, in words: within clinically acceptable limits
  Pulse rate mean values, in words: within clinically acceptable limits
  Respiration rate values, in words: within clinically acceptable limits
  Systolic blood pressure mean values, in words: within clinically acceptable limits
SDAT
  Subject stopping Criteria met (safety stoppage rule): only one subject's systolic BP reduced by more than 20 mm of Hg
SDAT, listed as Test
  Subject stopping Criteria met (safety stoppage rule): SBP >20 mm of Hg decrease
SDAT, the one subject with SBP decrease >20 mm of Hg
  time for systolic BP to return to baseline levels after infusion was stopped: ≤ 10 min
